# Results reported in patent US8754054B2, “Antibacterial compounds, methods of making them, and uses thereof” (Albany Molecular Research, Inc., priority 2010, dated 2014).
# Structures can show the parent of a compound that is named as a salt.
# System: MRSA 43300
# Assay: Antibacterial activity, NCCLS dilution method (Table 9)
# Format: cell-based, S. aureus
# Conditions: Staphylococcus aureus, MRSA, MRSA 43300; dilution method; labels marked a tested as a mixture of diastereomers; read-out: MRSA 43300 MIC
# Description: NCCLS standards for antimicrobial susceptibility testing using the dilution method were followed. See: Performance Standards for Antimicrobial Susceptibility Testing; Fourteenth Informational Supplement. NCCLS Document M100-S14 (ISBN 1-56238-516-X), 2004. NCCLS, 940 West Valley Road, Suite 1400, Wayne, Pa. 19087-1898 USA, 2004; Methods for Dilution Antimicrobial Susceptibility Tests for Bacteria that Grow Aerobically; Approved Standard—Sixth Edition. NCCLS document M7-A6 (IBSBN 1-56238-486-4), NCCLS, 940 West Valley Road, Suite 1400, Wayne, Pa. 19087-1898 USA, 2003, which are hereby incorporated by reference in their entirety.
row,SMILES,MIC [µg/mL]
1,"COC(=O)c1c(C)cc2c(c1OC)[C@]1(O)C(=O)c3cc4c(c(OC)c3C(=O)[C@]1(OC)[C@H](O)C2)C(=O)C=C(NC1O[C@@H](C)[C@H](OC)[C@@H](O)[C@H]1OC)C4=O (mixture of isomers) [Example 5, (6R,6aS,14aR)-Methyl 6,14a-dihydroxy-11-((3R,4R,5R,6S)-4-hydroxy-3,5-dimethoxy-6-methyltetrahydro-2H-pyran-2-ylamino)-1,6a,8-trimethoxy-3-methyl-7,9,12,14-tetraoxo-5,6,6a,7,9,12,14,14a-octahydrobenzo[a]tetracene-2-carboxylate]",2
2,"CO[C@@H]1[C@@H](O)[C@@H](OC)C(NC2=CC(=O)c3c(cc4c(c3O)C(=O)[C@]3(OC)[C@H](O)Cc5cc(C)c(C(=O)N(C)C)c(O)c5[C@]3(O)C4=O)C2=O)O[C@H]1C (mixture of isomers) [Example 16, (6R,6aS,14aR)-1,6,8,14a-Tetrahydroxy-11-((3R,4R,5R,6S)-4-hydroxy-3,5-dimethoxy-6-methyltetrahydro-2H-pyran-2-ylamino)-6a-methoxy-N,N,3-trimethyl-7,9,12,14-tetraoxo-5,6,6a,7,9,12,14,14a-octahydrobenzo[a]tetracene-2-carboxamide]",16
3,"CO[C@@H]1[C@@H](O)[C@@H](OC)C(NC2=CC(=O)c3c(cc4c(c3O)C(=O)[C@]3(OC)[C@H](O)Cc5cc(C)c(C(=O)NC6CCCCC6)c(O)c5[C@]3(O)C4=O)C2=O)O[C@H]1C (mixture of isomers) [Example 18, (6R,6aS,14aR)—N-Cyclohexyl-1,6,8,14a-tetrahydroxy-11-((3R,4R,5R,6S)-4-hydroxy-3,5-dimethoxy-6-methyltetrahydro-2H-pyran-2-ylamino)-6a-methoxy-3-methyl-7,9,12,14-tetraoxo-5,6,6a,7,9,12,14,14a-octahydrobenzo[a]tetracene-2-carboxamide]",2
4,"CNC(=O)c1c(C)cc2c(c1O)[C@]1(O)C(=O)c3cc4c(c(O)c3C(=O)[C@]1(OC)[C@H](O)C2)C(=O)C=C(NC1O[C@@H](C)[C@H](OC)[C@@H](O)[C@H]1OC)C4=O (mixture of isomers) [Example 19, (6R,6aS,14aR)-1,6,8,14a-Tetrahydroxy-11-((3R,4R,5R,6S)-4-hydroxy-3,5-dimethoxy-6-methyltetrahydro-2H-pyran-2-ylamino)-6a-methoxy-N,3-dimethyl-7,9,12,14-tetraoxo-5,6,6a,7,9,12,14,14a-octahydrobenzo[a]tetracene-2-carboxamide]",2
5,"CO[C@@H]1[C@@H](O)[C@@H](OC)C(NC2=CC(=O)c3c(cc4c(c3O)C(=O)[C@]3(OC)[C@H](O)Cc5cc(C)c(C(=O)N6CCCCC6)c(O)c5[C@]3(O)C4=O)C2=O)O[C@H]1C (mixture of isomers) [Example 21, (6R,6aS,14aR)-1,6,8,14a-Tetrahydroxy-11-((3R,4R,5R,6S)-4-hydroxy-3,5-dimethoxy-6-methyltetrahydro-2H-pyran-2-ylamino)-6a-methoxy-3-methyl-2-(piperidine-1-carbonyl)-6,6a-dihydrobenzo[a]tetracene-7,9,12,14(5H,14aH)-tetraone]",1
6,"CO[C@@H]1[C@@H](O)[C@@H](OC)C(NC2=CC(=O)c3c(cc4c(c3O)C(=O)[C@]3(OC)[C@H](O)Cc5cc(C)c(C(=O)N6CCCC6)c(O)c5[C@]3(O)C4=O)C2=O)O[C@H]1C (mixture of isomers) [Example 22, (6R,6aS,14aR)-1,6,8,14a-Tetrahydroxy-11-((3R,4R,5R,6S)-4-hydroxy-3,5-dimethoxy-6-methyltetrahydro-2H-pyran-2-ylamino)-6a-methoxy-3-methyl-2-(pyrrolidine-1-carbonyl)-6,6a-dihydrobenzo[a]tetracene-7,9,12,14(5H,14aH)-tetraone]",1
7,"CO[C@@H]1[C@@H](O)[C@@H](OC)C(NC2=CC(=O)c3c(cc4c(c3O)C(=O)[C@]3(OC)[C@H](O)Cc5cc(C)c(C(=O)Nc6ccc(-c7ccccc7)cc6)c(O)c5[C@]3(O)C4=O)C2=O)O[C@H]1C (mixture of isomers) [Example 23, (6R,6aS,14aR)—N-(Biphenyl-4-yl)-1,6,8,14a-tetrahydroxy-11-((3R,4R,5R,6S)-4-hydroxy-3,5-dimethoxy-6-methyltetrahydro-2H-pyran-2-ylamino)-6a-methoxy-3-methyl-7,9,12,14-tetraoxo-5,6,6a,7,9,12,14,14a-octahydrobenzo[a]tetracene-2-carboxamide]",4
8,"CO[C@@H]1[C@@H](O)[C@@H](OC)C(NC2=CC(=O)c3c(cc4c(c3O)C(=O)[C@]3(OC)[C@H](O)Cc5cc(C)c(C(=O)NCCO)c(O)c5[C@]3(O)C4=O)C2=O)O[C@H]1C (mixture of isomers) [Example 24, (6R,6aS,14aR)-1,6,8,14a-Tetrahydroxy-11-((3R,4R,5R,6S)-4-hydroxy-3,5-dimethoxy-6-methyltetrahydro-2H-pyran-2-ylamino)-N-(2-hydroxyethyl)-6a-methoxy-3-methyl-7,9,12,14-tetraoxo-5,6,6a,7,9,12,14,14a-octahydrobenzo[a]tetracene-2-carboxamide]",32
9,"CO[C@@H]1[C@@H](O)[C@@H](OC)C(NC2=CC(=O)c3c(cc4c(c3O)C(=O)[C@]3(OC)[C@H](O)Cc5cc(C)c(C(=O)NCCCc6ccccc6)c(O)c5[C@]3(O)C4=O)C2=O)O[C@H]1C (mixture of isomers) [Example 25, (6R,6aS,14aR)-1,6,8,14a-Tetrahydroxy-11-((3R,4R,5R,6S)-4-hydroxy-3,5-dimethoxy-6-methyltetrahydro-2H-pyran-2-ylamino)-6a-methoxy-3-methyl-7,9,12,14-tetraoxo-N-(3-phenylpropyl)-5,6,6a,7,9,12,14,14a-octahydrobenzo[a]tetracene-2-carboxamide]",2 to 4
10,"CO[C@@H]1[C@@H](O)[C@@H](OC)C(NC2=CC(=O)c3c(cc4c(c3O)C(=O)[C@]3(OC)[C@H](O)Cc5cc(C)c(C(=O)NCc6ccc(F)cc6)c(O)c5[C@]3(O)C4=O)C2=O)O[C@H]1C (mixture of isomers) [Example 26, (6R,6aS,14aR)—N-(4-Fluorobenzyl)-1,6,8,14a-tetrahydroxy-11-((3R,4R,5R,6S)-4-hydroxy-3,5-dimethoxy-6-methyltetrahydro-2H-pyran-2-ylamino)-6a-methoxy-3-methyl-7,9,12,14-tetraoxo-5,6,6a,7,9,12,14,14a-octahydrobenzo[a]tetracene-2-carboxamide]",0.5
11,"CO[C@@H]1[C@@H](O)[C@@H](OC)C(NC2=CC(=O)c3c(cc4c(c3O)C(=O)[C@]3(OC)[C@H](O)Cc5cc(C)c(C(=O)NCc6ccc(Cl)cc6)c(O)c5[C@]3(O)C4=O)C2=O)O[C@H]1C (mixture of isomers) [Example 27, (6R,6aS,14aR)—N-(4-Chlorobenzyl)-1,6,8,14a-tetrahydroxy-11-((3R,4R,5R,6S)-4-hydroxy-3,5-dimethoxy-6-methyltetrahydro-2H-pyran-2-ylamino)-6a-methoxy-3-methyl-7,9,12,14-tetraoxo-5,6,6a,7,9,12,14,14a-octahydrobenzo[a]tetracene-2-carboxamide]",8
12,"CO[C@@H]1[C@@H](O)[C@@H](OC)C(NC2=CC(=O)c3c(cc4c(c3O)C(=O)[C@]3(OC)[C@H](O)Cc5cc(C)c(C(=O)NCc6ccccc6)c(O)c5[C@]3(O)C4=O)C2=O)O[C@H]1C (mixture of isomers) [Example 30, (6R,6aS,14aR)—N-Benzyl-1,6,8,14a-tetrahydroxy-11-((3R,4R,5R,6S)-4-hydroxy-3,5-dimethoxy-6-methyltetrahydro-2H-pyran-2-ylamino)-6a-methoxy-3-methyl-7,9,12,14-tetraoxo-5,6,6a,7,9,12,14,14a-octahydrobenzo[a]tetracene-2-carboxamide]",0.12 to 0.5
13,"CO[C@@H]1[C@@H](O)[C@@H](OC)C(NC2=CC(=O)c3c(cc4c(c3O)C(=O)[C@]3(OC)[C@H](O)Cc5cc(C)c(C(=O)NC(C)C)c(O)c5[C@]3(O)C4=O)C2=O)O[C@H]1C (mixture of isomers) [Example 31, (6R,6aS,14aR)-1,6,8,14a-Tetrahydroxy-11-((3R,4R,5R,6S)-4-hydroxy-3,5-dimethoxy-6-methyltetrahydro-2H-pyran-2-ylamino)-N-isopropyl-6a-methoxy-3-methyl-7,9,12,14-tetraoxo-5,6,6a,7,9,12,14,14a-octahydrobenzo[a]tetracene-2-carboxamide]",2
14,"CO[C@@H]1[C@@H](O)[C@@H](OC)C(NC2=CC(=O)c3c(cc4c(c3O)C(=O)[C@]3(OC)[C@H](O)Cc5cc(C)c(C(=O)OCc6ccccc6)c(O)c5[C@]3(O)C4=O)C2=O)O[C@H]1C (mixture of isomers) [Example 37, (6R,6aS,14aR)-Benzyl 1,6,8,14a-tetrahydroxy-11-((3R,4R,5R,6S)-4-hydroxy-3,5-dimethoxy-6-methyltetrahydro-2H-pyran-2-ylamino)-6a-methoxy-3-methyl-7,9,12,14-tetraoxo-5,6,6a,7,9,12,14,14a-octahydrobenzo[a]tetracene-2-carboxylate]",0.25
15,"COC(=O)c1c(C)cc2c(c1O)[C@]1(O)C(=O)c3cc4c(c(O)c3C(=O)[C@]1(OC)[C@H](O)C2)C(=O)C=C(N[C@H]1O[C@@H](C)[C@H](OC)C(=NO)[C@H]1OC)C4=O (single isomer, unassigned) [Example 49]",0.06
16,"COC(=O)c1c(C)cc2c(c1O)[C@]1(O)C(=O)c3cc4c(c(O)c3C(=O)[C@]1(OC)[C@H](O)C2)C(=O)C=C(N[C@H]1O[C@@H](C)[C@H](OC)[C@@H](O)[C@H]1OC)C4(C)O (single isomer, unassigned) [Example 55]",32

# Same assay, conditions: Staphylococcus aureus, MRSA, read-out: MRSA 43300 MIC
row,SMILES,MIC [µg/mL]
1,"CO[C@@H]1[C@@H](O)[C@@H](OC)C(NC2=CC(=O)c3c(cc4c(c3O)C(=O)[C@]3(OC)[C@H](O)Cc5cc(C)c(C(=O)NCc6cccnc6)c(O)c5[C@]3(O)C4=O)C2=O)O[C@H]1C (mixture of isomers) [Example 17, (6R,6aS,14aR)-1,6,8,14a-Tetrahydroxy-11-((3R,4R,5R,6S)-4-hydroxy-3,5-dimethoxy-6-methyltetrahydro-2H-pyran-2-ylamino)-6a-methoxy-3-methyl-7,9,12,14-tetraoxo-N-(pyridin-3-ylmethyl)-5,6,6a,7,9,12,14,14a-octahydrobenzo[a]tetracene-2-carboxamide hydrochloride]",32
